Values after ≈ are worked out from the molar mass of the structure shown.
How the values were obtained:
[1] = Apparent permeability of the compound at 5 uM after 5 hrs by PAMPA; assay type: physicochemical
[2] = Unbound plasma concentration in human at 10 uM measured after 4 hrs by equilibrium dialysis method; assay type: ADME, cell-free
Plasma [3] = experiment: Anticoagulant activity in human plasma assessed as concentration required to double activated partial thromboplastin time; assay type: functional
Coagulation factor IX [4] = target: Coagulation factor IX (Rattus norvegicus, UniProt P16296); experiment: Inhibition of rat coagulation factor 9a
[5] = Solubility of the compound in phosphate buffer at pH 7.4 measured after 1.5 hrs by UV absorbance method; assay type: physicochemical
[6] = Apparent permeability in MDCK cells at 5 uM after 1 hr by LC-MS/MS method; assay type: ADME, cell-based, Canis lupus familiaris; details: dog
[7] = Apparent permeability in MDCK2-MDR1 cells at 5 uM after 1 hr by LC-MS/MS method; assay type: ADME, cell-based, Canis lupus familiaris; details: dog, MDCK-MDR1
[8] = Metabolic stability in human liver microsomes at 1 uM measured after 20 mins in presence of NADP+ by LC-MS/MS method; assay type: ADME, microsome; details: read-out: Stability
[9] = Metabolic stability in rat liver microsomes at 1 uM measured after 20 mins in presence of NADP+ by LC-MS/MS method; assay type: ADME, microsome; details: read-out: Stability
[10] = Metabolic stability in dog liver microsomes at 1 uM measured after 20 mins in presence of NADP+ by LC-MS/MS method; assay type: ADME, Canis lupus familiaris, microsome; details: read-out: Stability
[11] = Unbound plasma concentration in rat at 10 uM measured after 4 hrs by equilibrium dialysis method; assay type: ADME, cell-free
[12] = Unbound plasma concentration in dog at 10 uM measured after 4 hrs by equilibrium dialysis method; assay type: ADME, cell-free, Canis lupus familiaris
[13] = Volume of distribution at steady state in rat at 1 mg/kg, iv; assay type: ADME, organism-based; details: in vivo, read-out: Vdss
[14] = Total clearance in rat at 1 mg/kg, iv; assay type: ADME, organism-based; details: in vivo
[15] = Half life in rat at 1 mg/kg, iv; assay type: ADME, organism-based; details: in vivo
[16] = AUCt in rat at 1 mg/kg, iv; assay type: ADME, organism-based; details: in vivo
[17] = Cmax in rat at 10 mg/kg, po; assay type: ADME, organism-based; parameters: dose 10 mg/kg, route oral; details: in vivo
[18] = Tmax in rat at 10 mg/kg, po; assay type: ADME, organism-based; details: in vivo
[19] = AUCt in rat at 10 mg/kg, po; assay type: ADME, organism-based; details: in vivo
[20] = Oral bioavailability in rat at 10 mg/kg; assay type: ADME, organism-based; details: in vivo
[21] = Volume of distribution at steady state in dog at 0.3 mg/kg, iv; assay type: ADME, organism-based, Canis lupus familiaris; details: in vivo, read-out: Vdss
[22] = Total clearance in dog at 0.3 mg/kg, iv; assay type: ADME, organism-based, Canis lupus familiaris; details: in vivo
[23] = Half life in dog at 0.3 mg/kg, iv; assay type: ADME, organism-based, Canis lupus familiaris; details: in vivo
[24] = AUCt in dog at 0.3 mg/kg, iv; assay type: ADME, organism-based, Canis lupus familiaris; details: in vivo
Plasma [25] = experiment: Anticoagulant activity in rat plasma assessed as concentration required to double activated partial thromboplastin time; assay type: functional
Plasma [26] = experiment: Effect on prothrombin time in human plasma assessed as concentration required to double prothrombin time; assay type: functional
Plasma [27] = experiment: Effect on prothrombin time in rat plasma assessed as concentration required to double prothrombin time; assay type: functional
Cytochrome P450 1A2 [28] = target: T1, Cytochrome P450 1A2 (Homo sapiens, UniProt P05177); experiment: Inhibition of CYP1A2 in liver microsomes (unknown origin) assessed as formation of acetaminophen from phenacetin in presence of NADPH by LC-MS/MS analysis; assay type: ADME
T1 sequence (P05177 whole entry): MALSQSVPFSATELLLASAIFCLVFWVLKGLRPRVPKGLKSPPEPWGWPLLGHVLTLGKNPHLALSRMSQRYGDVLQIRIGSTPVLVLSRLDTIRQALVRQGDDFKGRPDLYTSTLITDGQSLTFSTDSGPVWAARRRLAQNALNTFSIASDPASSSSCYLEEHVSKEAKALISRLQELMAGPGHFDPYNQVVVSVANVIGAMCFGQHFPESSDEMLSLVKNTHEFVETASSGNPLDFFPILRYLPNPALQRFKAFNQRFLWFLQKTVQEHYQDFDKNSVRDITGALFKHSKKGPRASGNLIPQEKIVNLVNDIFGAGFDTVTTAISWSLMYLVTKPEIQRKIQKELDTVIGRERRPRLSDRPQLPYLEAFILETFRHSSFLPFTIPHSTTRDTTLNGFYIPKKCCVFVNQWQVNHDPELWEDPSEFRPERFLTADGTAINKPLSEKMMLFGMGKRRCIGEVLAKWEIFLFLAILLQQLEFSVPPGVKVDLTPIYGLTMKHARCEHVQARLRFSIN

Cytochrome P450 2C9 = Cytochrome P450 2C9 (Homo sapiens, UniProt P11712); experiment: Inhibition of CYP2C9 in liver microsomes (unknown origin) assessed as formation of 4-hydroxydiclofenac from diclofenac in presence of NADPH by LC-MS/MS analysis; assay type: ADME
Cytochrome P450 2C19 = Cytochrome P450 2C19 (Homo sapiens, UniProt P33261); experiment: Inhibition of CYP2C19 in liver microsomes (unknown origin) assessed as formation of 4-hydroxymephenytoin from S-mephenytoin in presence of NADPH by LC-MS/MS analysis; assay type: ADME
Cytochrome P450 2D6 = Cytochrome P450 2D6 (Homo sapiens, UniProt P10635); experiment: Inhibition of CYP2D6 in liver microsomes (unknown origin) assessed as formation of 1-hydroxybufuralol from bufuralol in presence of NADPH by LC-MS/MS analysis; assay type: ADME
Cytochrome P450 3A4 [29] = target: T2, Cytochrome P450 3A4 (Homo sapiens, UniProt P08684); experiment: Inhibition of CYP3A4 in liver microsomes (unknown origin) assessed as formation of 1-hydroxymidazolam from midazolam in presence of NADPH by LC-MS/MS analysis; assay type: ADME
Cytochrome P450 1A2 [30] = target: T1, Cytochrome P450 1A2; experiment: Induction of CYP1A2 in hepatocytes (unknown origin) assessed as 7-ethoxyresorufin O-dealkylation at 0.3 to 10 uM treated for 3 days; assay type: ADME, cell-based; details: 72 h
Cytochrome P450 3A4 [31] = target: T2, Cytochrome P450 3A4; experiment: Induction of CYP3A4 in hepatocytes (unknown origin) assessed as midazolam 1-hydroxylation at 0.3 to 10 uM treated for 3 days; assay type: ADME, cell-based; details: 72 h
Coagulation factor X = Coagulation factor X (Homo sapiens, UniProt P00742)
Description: Inhibition of human coagulation factor 10a

Coagulation factor IX [32] = target: Coagulation factor IX (Homo sapiens, UniProt P00740)
Sequence of Coagulation factor IX (Homo sapiens, UniProt P00740) (P00740 47-191 limits assumed): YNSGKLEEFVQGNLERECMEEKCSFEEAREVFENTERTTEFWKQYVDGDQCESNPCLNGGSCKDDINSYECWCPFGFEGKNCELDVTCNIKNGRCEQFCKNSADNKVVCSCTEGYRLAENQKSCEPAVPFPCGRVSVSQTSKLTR
Sequence of Coagulation factor IX (Homo sapiens, UniProt P00740) (P00740 227-461 limits assumed): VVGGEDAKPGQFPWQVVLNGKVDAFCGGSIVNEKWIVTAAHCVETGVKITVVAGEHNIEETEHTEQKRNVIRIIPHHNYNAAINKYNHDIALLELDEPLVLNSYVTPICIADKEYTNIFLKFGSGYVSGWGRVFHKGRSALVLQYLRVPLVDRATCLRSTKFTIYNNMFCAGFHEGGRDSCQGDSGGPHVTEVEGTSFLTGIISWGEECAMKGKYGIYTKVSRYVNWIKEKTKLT

T2 sequence (P08684 whole entry): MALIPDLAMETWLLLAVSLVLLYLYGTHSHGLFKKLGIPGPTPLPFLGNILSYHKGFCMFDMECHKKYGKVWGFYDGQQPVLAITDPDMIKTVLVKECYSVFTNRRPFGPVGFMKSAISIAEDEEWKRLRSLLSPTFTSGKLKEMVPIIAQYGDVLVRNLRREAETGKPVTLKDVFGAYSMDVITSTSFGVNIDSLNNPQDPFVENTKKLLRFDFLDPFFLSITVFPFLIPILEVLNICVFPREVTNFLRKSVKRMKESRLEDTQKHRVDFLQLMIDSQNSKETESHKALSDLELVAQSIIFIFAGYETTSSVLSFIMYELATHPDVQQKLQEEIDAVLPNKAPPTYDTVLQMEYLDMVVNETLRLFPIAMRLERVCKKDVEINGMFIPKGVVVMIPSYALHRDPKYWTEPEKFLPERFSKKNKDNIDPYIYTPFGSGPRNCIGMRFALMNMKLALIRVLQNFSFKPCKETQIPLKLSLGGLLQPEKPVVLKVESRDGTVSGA
Sequence of Coagulation factor IX (Rattus norvegicus, UniProt P16296) (P16296 40-185 limits assumed): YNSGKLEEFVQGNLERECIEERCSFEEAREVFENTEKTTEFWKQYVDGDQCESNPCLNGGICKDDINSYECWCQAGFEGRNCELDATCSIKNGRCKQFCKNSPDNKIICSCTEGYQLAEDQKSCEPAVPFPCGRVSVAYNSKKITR
Sequence of Coagulation factor IX (Rattus norvegicus, UniProt P16296) (P16296 228-462 limits assumed): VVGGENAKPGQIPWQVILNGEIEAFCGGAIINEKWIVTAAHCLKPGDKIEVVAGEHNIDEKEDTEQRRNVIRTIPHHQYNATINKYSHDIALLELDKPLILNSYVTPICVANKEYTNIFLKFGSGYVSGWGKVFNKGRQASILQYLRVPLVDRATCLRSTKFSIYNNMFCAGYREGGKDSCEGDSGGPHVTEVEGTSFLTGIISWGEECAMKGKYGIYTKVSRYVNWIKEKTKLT
Sequence of Cytochrome P450 2C19 (P33261 whole entry): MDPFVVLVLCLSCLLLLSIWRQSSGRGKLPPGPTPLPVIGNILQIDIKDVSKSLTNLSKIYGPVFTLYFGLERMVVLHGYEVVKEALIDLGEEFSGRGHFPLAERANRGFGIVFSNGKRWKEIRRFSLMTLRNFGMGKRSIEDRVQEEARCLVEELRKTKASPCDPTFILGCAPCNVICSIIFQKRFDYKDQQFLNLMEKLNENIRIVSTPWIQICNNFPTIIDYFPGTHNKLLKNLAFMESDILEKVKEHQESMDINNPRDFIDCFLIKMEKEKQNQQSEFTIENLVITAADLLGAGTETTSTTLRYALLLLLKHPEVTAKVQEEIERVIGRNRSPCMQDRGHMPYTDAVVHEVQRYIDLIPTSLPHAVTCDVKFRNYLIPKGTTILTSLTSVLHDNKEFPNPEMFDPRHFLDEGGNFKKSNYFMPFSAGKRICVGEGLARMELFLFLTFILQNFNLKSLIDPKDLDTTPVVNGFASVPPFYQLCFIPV
Sequence of Cytochrome P450 2D6 (P10635 whole entry): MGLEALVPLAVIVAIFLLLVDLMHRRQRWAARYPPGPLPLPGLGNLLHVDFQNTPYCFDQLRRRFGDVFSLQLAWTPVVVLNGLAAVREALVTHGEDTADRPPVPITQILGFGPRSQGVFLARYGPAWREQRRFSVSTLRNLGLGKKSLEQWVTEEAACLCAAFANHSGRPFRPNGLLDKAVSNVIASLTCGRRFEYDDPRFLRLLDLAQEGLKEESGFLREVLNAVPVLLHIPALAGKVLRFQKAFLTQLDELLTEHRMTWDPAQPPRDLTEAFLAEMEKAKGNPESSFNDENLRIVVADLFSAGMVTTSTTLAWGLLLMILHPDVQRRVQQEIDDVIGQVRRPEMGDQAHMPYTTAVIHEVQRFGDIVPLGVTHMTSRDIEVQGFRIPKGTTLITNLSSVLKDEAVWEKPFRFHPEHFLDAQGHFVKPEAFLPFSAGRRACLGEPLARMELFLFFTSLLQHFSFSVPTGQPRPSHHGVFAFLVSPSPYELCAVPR
Sequence of Cytochrome P450 2C9 (P11712 whole entry): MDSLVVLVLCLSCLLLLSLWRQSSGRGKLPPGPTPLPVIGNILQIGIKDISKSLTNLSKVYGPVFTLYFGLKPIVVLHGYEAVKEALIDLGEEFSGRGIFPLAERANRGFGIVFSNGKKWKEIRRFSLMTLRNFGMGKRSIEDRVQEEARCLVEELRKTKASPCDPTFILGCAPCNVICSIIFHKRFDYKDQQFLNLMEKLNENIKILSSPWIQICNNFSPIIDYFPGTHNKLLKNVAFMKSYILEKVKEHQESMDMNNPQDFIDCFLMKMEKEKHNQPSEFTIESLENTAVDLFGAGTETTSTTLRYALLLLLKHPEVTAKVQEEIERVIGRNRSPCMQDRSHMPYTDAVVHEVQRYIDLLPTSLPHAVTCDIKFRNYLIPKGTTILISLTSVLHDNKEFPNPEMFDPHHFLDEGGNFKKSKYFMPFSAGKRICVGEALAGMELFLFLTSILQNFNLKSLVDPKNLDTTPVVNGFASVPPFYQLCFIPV
Sequence of Coagulation factor X (P00742 41-179 limits assumed): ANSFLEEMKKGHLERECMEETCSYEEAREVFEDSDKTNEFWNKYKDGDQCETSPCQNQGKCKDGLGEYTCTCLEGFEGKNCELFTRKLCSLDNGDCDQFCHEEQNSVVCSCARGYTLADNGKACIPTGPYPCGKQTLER
Sequence of Coagulation factor X (P00742 235-488 limits assumed): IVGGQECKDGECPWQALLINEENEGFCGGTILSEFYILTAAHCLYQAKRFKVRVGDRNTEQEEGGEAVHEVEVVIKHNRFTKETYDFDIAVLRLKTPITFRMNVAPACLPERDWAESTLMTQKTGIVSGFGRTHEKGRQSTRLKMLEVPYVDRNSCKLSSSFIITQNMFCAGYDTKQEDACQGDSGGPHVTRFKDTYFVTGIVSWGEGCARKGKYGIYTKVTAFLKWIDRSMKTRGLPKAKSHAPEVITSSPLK

SMILES: Cc1ncn(-c2ccc(C(=O)N[C@H]3[C@H]4CC[C@H]3N(c3ncc(Cl)c5cnoc35)C4)c(Cl)c2)n1
- Papp at 5 h, 5 µM [1]: 6.5 ×10⁻⁶ cm/s
- fraction unbound at 4 h, 10 µM [2]: 0.041
- 2aPTT (Plasma [3]): 5.8 µM
- IC50 (Coagulation factor IX [4]): 3.7 nM
- solubility at 1.5 h [5]: 29 µM (≈ 14 µg/mL)
- Papp at 1 h, 5 µM [6]: 14.5 ×10⁻⁶ cm/s
- Papp at 1 h, 5 µM [7]: 5.8 ×10⁻⁶ cm/s
- remaining at 20 min, 1 µM [8]: 11%
- remaining at 20 min, 1 µM [9]: 24%
- remaining at 20 min, 1 µM [10]: 11%
- fraction unbound at 4 h, 10 µM [11]: 0.051
- fraction unbound at 4 h, 10 µM [12]: 0.054
- Vd [13]: 0.9 L/kg
- clearance [14]: 16.5 mL/min/kg
- half-life [15]: 48 min
- AUC(0-t) [16]: 1010 ng·h/mL
- Cmax [17]: 1600 ng/mL
- Tmax [18]: 1 h
- AUC(0-t) [19]: 5150 ng·h/mL
- bioavailability [20]: 51%
- Vd [21]: 1.3 L/kg
- clearance [22]: 3.5 mL/min/kg
- half-life [23]: 282 min
- AUC(0-t) [24]: 1410 ng·h/mL
- 2aPTT (Plasma [25]): 6.2 µM
- 2PT (Plasma [26]): >200 µM
- 2PT (Plasma [27]): >200 µM
- IC50 (Cytochrome P450 1A2 [28]): > 10 µM
- IC50 (Cytochrome P450 2C9): > 10 µM
- IC50 (Cytochrome P450 2C19): > 10 µM
- IC50 (Cytochrome P450 2D6): > 10 µM
- IC50 (Cytochrome P450 3A4 [29]): > 10 µM
- Activity (Cytochrome P450 1A2 [30]): Not Active
- Activity (Cytochrome P450 3A4 [31]): Not Active
- IC50 (Coagulation factor X): 31 µM
- IC50 (Coagulation factor IX [32]): 4.9 nM

Source: ChEMBL document CHEMBL4017471, “Discovery of novel aminobenzisoxazole derivatives as orally available factor IXa inhibitors” (Bioorg Med Chem Lett, 2017)
